Several values for one entry are separate records, joined by “and”; a condition that tells them apart may be missing. Equal values may be shown once. Read-outs that look alike come from different tables or passages of the source.
Columns and labels:
HsProRS = HsProRS (Homo sapiens, UniProt P07814); test: TR-FRET ligand displacement assay with tracer MAT379 (CoraFluor-1-Halo and anti-His6 antibody formats); type: binding; set-up: made in house; host or cells: E. coli SoluBL-21; conditions: for TR-FRET dose-response, normalized signal (SI Fig 11): individual replicates
P. falciparum Dd2-2D4 = test: P. falciparum asexual blood stage (ABS) growth assay, SYBR Green, 72 h, wild-type parasites; type: cell-based, Plasmodium falciparum; conditions: for ABS growth dose-response, normalized signal (Replicates 1-3): Dd2-2D4
[1] = system: halofuginone-induced P. falciparum (elevated proline homeostasis); test: P. falciparum ABS growth assay, SYBR Green, 72 h, halofuginone-induced parasites; type: cell-based, Plasmodium falciparum; conditions: Halofuginone-Induced (HFG-Induced)
How it was run: (§1)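 Growth inhibition of the resistant and induced Dd2 lines is measured over 72 h in triplicate dose-response, starting at 1% parasitemia and 1% hematocrit. SYBR Green 1 staining gives the fluorescence readout, normalized between 10 μM dihydroartemisinin and no-compound wells.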

PfcProRS = molecular target: T1, PfcProRS (Plasmodium falciparum, UniProt Q8I5R7); type: binding; conditions: for dose-response signal (normalized), SI Fig 8: single replicates
T1 construct: made in house; host or cells: E. coli SoluBL-21

[2] = system: HFGR-I P. falciparum (elevated proline homeostasis and PfcProRS^L482H); test: P. falciparum ABS growth assay, SYBR Green, 72 h, HFGR-I parasites; type: cell-based, Plasmodium falciparum; conditions: HFGR-I
How it was run: as §1

Chain of HsProRS (P07814 996-1512): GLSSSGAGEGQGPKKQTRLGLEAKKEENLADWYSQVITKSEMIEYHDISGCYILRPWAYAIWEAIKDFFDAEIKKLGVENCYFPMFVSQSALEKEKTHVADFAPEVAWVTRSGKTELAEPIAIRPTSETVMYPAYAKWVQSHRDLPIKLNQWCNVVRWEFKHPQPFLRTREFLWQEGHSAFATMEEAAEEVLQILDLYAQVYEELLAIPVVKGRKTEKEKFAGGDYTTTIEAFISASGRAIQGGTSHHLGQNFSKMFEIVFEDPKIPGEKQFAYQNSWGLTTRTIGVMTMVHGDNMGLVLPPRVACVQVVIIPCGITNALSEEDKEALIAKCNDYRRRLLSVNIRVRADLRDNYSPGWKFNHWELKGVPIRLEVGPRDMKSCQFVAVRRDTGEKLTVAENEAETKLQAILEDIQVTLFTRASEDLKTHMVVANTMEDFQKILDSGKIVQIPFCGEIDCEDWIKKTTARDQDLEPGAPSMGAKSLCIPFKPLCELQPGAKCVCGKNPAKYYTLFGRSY
T1 sequence (Q8I5R7 249-746): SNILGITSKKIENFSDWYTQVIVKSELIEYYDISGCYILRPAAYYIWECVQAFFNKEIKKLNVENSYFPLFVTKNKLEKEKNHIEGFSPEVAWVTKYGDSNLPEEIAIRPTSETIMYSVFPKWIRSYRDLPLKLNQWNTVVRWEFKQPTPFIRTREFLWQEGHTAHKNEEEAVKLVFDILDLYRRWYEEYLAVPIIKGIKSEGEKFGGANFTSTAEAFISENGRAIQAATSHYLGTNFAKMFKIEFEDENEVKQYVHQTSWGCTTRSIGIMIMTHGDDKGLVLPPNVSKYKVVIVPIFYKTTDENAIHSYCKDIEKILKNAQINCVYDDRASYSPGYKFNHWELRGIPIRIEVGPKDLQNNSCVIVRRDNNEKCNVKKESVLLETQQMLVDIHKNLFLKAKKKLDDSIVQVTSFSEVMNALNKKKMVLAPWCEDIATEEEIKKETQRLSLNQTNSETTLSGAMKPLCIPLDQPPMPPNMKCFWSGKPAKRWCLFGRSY

Structure (SMILES): CC(C)(C)OC(=O)NC1CCN(C(=O)Nc2nccnc2C(=O)NC2Cc3ccccc3C2)CC1 [compound 7]
- Kd (HsProRS; HsProRS (KD [nM]) + proline, 100 μM proline, 250 nM MAT379): 34.8 nM
- Kd (HsProRS; HsProRS - best Kd, SI Fig 16a, values on -log scale): 22.1 nM
- normalized TR-FRET ligand displacement signal, dose-response replicates (SI Fig 6) (HsProRS; Log[inhibitor] (M) -5.000): -1.10E-01 and -3.98E-02 and -5.51E-02
- TR-FRET dose-response, normalized signal (SI Fig 11) (HsProRS; Log[inhibitor] (M) -5.000): 5.88E-02 and 4.63E-03 and 1.20E-02
- normalized TR-FRET ligand displacement signal, dose-response replicates (SI Fig 6) (HsProRS; Log[inhibitor] (M) -5.301): -3.29E-02 and -2.98E-02 and -2.55E-02
- TR-FRET dose-response, normalized signal (SI Fig 11) (HsProRS; Log[inhibitor] (M) -5.301): 8.22E-04 and 1.04E-02 and 2.94E-02
- normalized TR-FRET ligand displacement signal, dose-response replicates (SI Fig 6) (HsProRS; Log[inhibitor] (M) -5.601): -4.70E-04 and 4.94E-02 and -1.17E-02
- TR-FRET dose-response, normalized signal (SI Fig 11) (HsProRS; Log[inhibitor] (M) -5.601): 2.44E-02 and 7.65E-03 and 4.65E-02
- normalized TR-FRET ligand displacement signal, dose-response replicates (SI Fig 6) (HsProRS; Log[inhibitor] (M) -5.904): -2.26E-02 and 7.29E-03 and -6.02E-02
- TR-FRET dose-response, normalized signal (SI Fig 11) (HsProRS; Log[inhibitor] (M) -5.904): 5.49E-02 and 5.79E-02 and 5.68E-02
- normalized TR-FRET ligand displacement signal, dose-response replicates (SI Fig 6) (HsProRS; Log[inhibitor] (M) -6.208): 5.82E-02 and 7.95E-02 and 2.06E-02
- TR-FRET dose-response, normalized signal (SI Fig 11) (HsProRS; Log[inhibitor] (M) -6.208): 4.71E-02 and 4.91E-02 and 7.38E-02
- normalized TR-FRET ligand displacement signal, dose-response replicates (SI Fig 6) (HsProRS; Log[inhibitor] (M) -6.509): 1.24E-02 and 1.36E-01 and 1.19E-01
- TR-FRET dose-response, normalized signal (SI Fig 11) (HsProRS; Log[inhibitor] (M) -6.509): 1.27E-01 and 1.07E-01 and 8.54E-02
- normalized TR-FRET ligand displacement signal, dose-response replicates (SI Fig 6) (HsProRS; Log[inhibitor] (M) -6.796): 2.14E-01 and 2.70E-01 and 2.50E-01
- TR-FRET dose-response, normalized signal (SI Fig 11) (HsProRS; Log[inhibitor] (M) -6.796): 1.74E-01 and 1.79E-01 and 1.50E-01
- normalized TR-FRET ligand displacement signal, dose-response replicates (SI Fig 6) (HsProRS; Log[inhibitor] (M) -7.108): 3.41E-01 and 3.62E-01 and 3.83E-01
- TR-FRET dose-response, normalized signal (SI Fig 11) (HsProRS; Log[inhibitor] (M) -7.108): 2.66E-01 and 2.89E-01 and 3.00E-01
- normalized TR-FRET ligand displacement signal, dose-response replicates (SI Fig 6) (HsProRS; Log[inhibitor] (M) -7.409): 5.14E-01 and 5.24E-01 and 5.91E-01
- TR-FRET dose-response, normalized signal (SI Fig 11) (HsProRS; Log[inhibitor] (M) -7.409): 4.26E-01 and 3.87E-01 and 4.16E-01
- normalized TR-FRET ligand displacement signal, dose-response replicates (SI Fig 6) (HsProRS; Log[inhibitor] (M) -7.710): 7.15E-01 and 7.22E-01 and 6.26E-01
- TR-FRET dose-response, normalized signal (SI Fig 11) (HsProRS; Log[inhibitor] (M) -7.710): 5.82E-01 and 5.49E-01 and 5.55E-01
- normalized TR-FRET ligand displacement signal, dose-response replicates (SI Fig 6) (HsProRS; Log[inhibitor] (M) -8.000): 9.10E-01 and 9.20E-01 and 8.83E-01
- TR-FRET dose-response, normalized signal (SI Fig 11) (HsProRS; Log[inhibitor] (M) -8.000): 7.19E-01 and 6.97E-01 and 7.02E-01
- normalized TR-FRET ligand displacement signal, dose-response replicates (SI Fig 6) (HsProRS; Log[inhibitor] (M) -8.301): 9.29E-01 and 8.45E-01 and 8.62E-01
- TR-FRET dose-response, normalized signal (SI Fig 11) (HsProRS; Log[inhibitor] (M) -8.301): 8.41E-01 and 8.30E-01 and 7.96E-01
- normalized TR-FRET ligand displacement signal, dose-response replicates (SI Fig 6) (HsProRS; Log[inhibitor] (M) -8.602): 1.00E+00 and 9.03E-01 and 8.98E-01
- TR-FRET dose-response, normalized signal (SI Fig 11) (HsProRS; Log[inhibitor] (M) -8.602): 8.68E-01 and 8.38E-01 and 8.61E-01
- normalized TR-FRET ligand displacement signal, dose-response replicates (SI Fig 6) (HsProRS; Log[inhibitor] (M) -9.000): 9.68E-01 and 8.42E-01 and 9.66E-01
- TR-FRET dose-response, normalized signal (SI Fig 11) (HsProRS; Log[inhibitor] (M) -9.000): 9.12E-01 and 9.38E-01 and 9.42E-01
- normalized TR-FRET ligand displacement signal, dose-response replicates (SI Fig 6) (HsProRS; Log[inhibitor] (M) -9.301): 9.89E-01 and 9.63E-01 and 1.01E+00
- TR-FRET dose-response, normalized signal (SI Fig 11) (HsProRS; Log[inhibitor] (M) -9.301): 9.41E-01 and 9.42E-01 and 9.34E-01
- ABS growth dose-response, normalized signal (Replicates 1-3) (P. falciparum Dd2-2D4; Log[inhibitor] (M) -5.000): 1
- ABS growth dose-response, normalized signal (Replicates 1-3) (P. falciparum Dd2-2D4; Log[inhibitor] (M) -5.301): 1
- ABS growth dose-response, normalized signal (Replicates 1-3) (P. falciparum Dd2-2D4; Log[inhibitor] (M) -5.602): 1
- ABS growth dose-response, normalized signal (Replicates 1-3) (P. falciparum Dd2-2D4; Log[inhibitor] (M) -5.903): 1
- ABS growth dose-response, normalized signal (Replicates 1-3) (P. falciparum Dd2-2D4; Log[inhibitor] (M) -6.505): 1
- EC50 (P. falciparum Dd2-2D4; Plasmodium falciparum, DD2, SI Fig 16b, values on -log scale, read-out: ABS - Dd2-2D4 (converted)): 90.6 nM
- ABS growth dose-response, normalized signal (Replicates 1-3) ([1]; Log[inhibitor] (M) -5.000): 8 and 7 and 3
- ABS growth dose-response, normalized signal (Replicates 1-3) ([1]; Log[inhibitor] (M) -5.301): 22 and 9 and 15
- ABS growth dose-response, normalized signal (Replicates 1-3) ([1]; Log[inhibitor] (M) -5.602): 34 and 37 and 32
- ABS growth dose-response, normalized signal (Replicates 1-3) ([1]; Log[inhibitor] (M) -5.903): 93 and 89 and 84
- ABS growth dose-response, normalized signal (Replicates 1-3) ([1]; Log[inhibitor] (M) -6.204): 92 and 98 and 96
- ABS growth dose-response, normalized signal (Replicates 1-3) ([1]; Log[inhibitor] (M) -6.505): 98 and 96 and 105
- ABS growth dose-response, normalized signal (Replicates 1-3) ([1]; Log[inhibitor] (M) -6.806): 103 (2×) and 107
- ABS growth dose-response, normalized signal (Replicates 1-3) ([1]; Log[inhibitor] (M) -7.107): 109 (2×) and 104
- ABS growth dose-response, normalized signal (Replicates 1-3) ([1]; Log[inhibitor] (M) -7.408): 106 and 107 and 102
- ABS growth dose-response, normalized signal (Replicates 1-3) ([1]; Log[inhibitor] (M) -7.709): 107 and 106 and 101
- ABS growth dose-response, normalized signal (Replicates 1-3) ([1]; Log[inhibitor] (M) -8.010): 100 and 99 and 106
- ABS growth dose-response, normalized signal (Replicates 1-3) ([1]; Log[inhibitor] (M) -8.311): 109 and 100 and 99
- dose-response signal (normalized), SI Fig 8 (PfcProRS; Log[inhibitor] (M) -5.000): 9.23E-03 and -2.50E-03 and -6.65E-02
- dose-response signal (normalized), SI Fig 8 (PfcProRS; Log[inhibitor] (M) -5.301): -5.43E-02 and 1.65E-02 and -1.76E-02
- dose-response signal (normalized), SI Fig 8 (PfcProRS; Log[inhibitor] (M) -5.601): 6.03E-02 and 2.26E-02 and 5.28E-02
- dose-response signal (normalized), SI Fig 8 (PfcProRS; Log[inhibitor] (M) -5.904): 2.65E-02 and 5.41E-02 and 9.36E-02
- dose-response signal (normalized), SI Fig 8 (PfcProRS; Log[inhibitor] (M) -6.208): 2.38E-02 and 1.39E-01 and 9.30E-02
- dose-response signal (normalized), SI Fig 8 (PfcProRS; Log[inhibitor] (M) -6.509): 2.08E-01 and 1.27E-01 and 1.08E-01
- dose-response signal (normalized), SI Fig 8 (PfcProRS; Log[inhibitor] (M) -6.796): 2.54E-01 and 2.41E-01 and 3.20E-01
- dose-response signal (normalized), SI Fig 8 (PfcProRS; Log[inhibitor] (M) -7.108): 4.18E-01 and 3.78E-01 and 4.14E-01
- dose-response signal (normalized), SI Fig 8 (PfcProRS; Log[inhibitor] (M) -7.409): 5.88E-01 and 6.84E-01 and 5.75E-01
- dose-response signal (normalized), SI Fig 8 (PfcProRS; Log[inhibitor] (M) -7.710): 7.68E-01 and 7.32E-01 and 7.90E-01
- dose-response signal (normalized), SI Fig 8 (PfcProRS; Log[inhibitor] (M) -8.000): 9.75E-01 and 1.04E+00 and 8.35E-01
- dose-response signal (normalized), SI Fig 8 (PfcProRS; Log[inhibitor] (M) -8.301): 9.24E-01 and 9.28E-01 and 8.42E-01
- dose-response signal (normalized), SI Fig 8 (PfcProRS; Log[inhibitor] (M) -8.602): 1.04E+00 and 8.85E-01 and 9.51E-01
- dose-response signal (normalized), SI Fig 8 (PfcProRS; Log[inhibitor] (M) -9.000): 1.00E+00 and 1.08E+00 and 9.49E-01
- dose-response signal (normalized), SI Fig 8 (PfcProRS; Log[inhibitor] (M) -9.301): 9.78E-01 and 9.98E-01 and 9.79E-01
- PfcProRS -- best Kd (PfcProRS; SI Fig 16a, values on -log scale): 7.883
- Kd (PfcProRS; read-out: PfcProRS (KD [nM]) + proline): 13.2 nM
- ABS growth dose-response, normalized signal (Replicates 1-3) ([2]; Log[inhibitor] (M) -5.000): 7 (2×) and 6
- ABS growth dose-response, normalized signal (Replicates 1-3) ([2]; Log[inhibitor] (M) -5.301): 18 and 21 and 24
- ABS growth dose-response, normalized signal (Replicates 1-3) ([2]; Log[inhibitor] (M) -5.602): 51 and 50 and 48
- ABS growth dose-response, normalized signal (Replicates 1-3) ([2]; Log[inhibitor] (M) -5.903): 103 and 100 and 102
- ABS growth dose-response, normalized signal (Replicates 1-3) ([2]; Log[inhibitor] (M) -6.204): 99 and 103 and 101
- ABS growth dose-response, normalized signal (Replicates 1-3) ([2]; Log[inhibitor] (M) -6.505): 106 and 103 and 101
- ABS growth dose-response, normalized signal (Replicates 1-3) ([2]; Log[inhibitor] (M) -6.806): 100 and 103 and 108
- ABS growth dose-response, normalized signal (Replicates 1-3) ([2]; Log[inhibitor] (M) -7.107): 110 and 105 and 104
- ABS growth dose-response, normalized signal (Replicates 1-3) ([2]; Log[inhibitor] (M) -7.408): 103 and 110 and 105
- ABS growth dose-response, normalized signal (Replicates 1-3) ([2]; Log[inhibitor] (M) -7.709): 107 and 102 and 105
- ABS growth dose-response, normalized signal (Replicates 1-3) ([2]; Log[inhibitor] (M) -8.010): 102 and 103 and 101
- ABS growth dose-response, normalized signal (Replicates 1-3) ([2]; Log[inhibitor] (M) -8.311): 104 (2×) and 102

Reference: article PMC9403976, “Elucidating the path to Plasmodium prolyl-tRNA synthetase inhibitors that overcome halofuginone resistance” (Nature Communications, 2022)
